Reference: patent publication US4338330A, “Benzimidazole derivatives, their use, and compositions containing these derivatives” (Continental Pharma, priority 1979, dated 1982)

How the values were obtained:
[1] = system: isolated guinea pig auricles; experiment: Chronotrope effect of the substance on isolated auricles; conditions: 10^-6 M, 20 minutes, Tyrode, 29° C.
Description: The β-lytic effect was searched on the chronotropic response to noradrenaline of isolated guinea pig auricles. Auricles were incubated for 20 minutes in a Tyrode solution at 29° C. in the presence of the substance to be tested at the concentration of 10^-6 M. A positive (+) or negative (-) chronotrope effect of the substance was noted using the following scores: […]

[2] = Antihypertensive activity, oral, unanesthetized spontaneously hypertensive rats; format: in vivo
Description: […] Only rats having a systolic pressure of 180 to 220 mm Hg are used. Two rats are used by product. The treatments are administered without the knowledge of the person making the measure.
The antihypertensive effects were recorded according to a score followed by an index. The scoring system is as follows.
The index is calculated by multiplying the systolic pressure difference (cmHg) measured every 30 minutes after the treatment, by a coefficient of 1 to 6 corresponding to times of 30 to 180 minutes.

[3] = system: guinea pig ileum contractions induced by histamine; experiment: Antispasmodic activity against ileum contractions induced by histamine
Description: (§1) The antispasmodic activity of the studied substances was examined against guinea pig ileum contractions induced by histamine and acetylcholine.
(§2) These experiences allow to make it obvious an antihistaminic, anticholinergic or musculotrope activity. The response to the contracting agent (sub-maximum concentration) is obtained every 5 minutes before and after injection of increasing concentrations of tested products (10^-7 M to 10^-4 M). The inhibition percentage under the influence of tested products is calculated and the theoretical concentration giving 50% of inhibition is graphically determined for each experience. These values are expressed in -log CI50 (M).

[4] = system: guinea pig ileum contractions induced by acetylcholine; experiment: Antispasmodic activity against ileum contractions induced by acetylcholine
Description: as §1, §2

[5] = system: chronotropic response to noradrenaline of isolated guinea pig auricles; experiment: β-lytic effect on the chronotropic response to noradrenaline of isolated auricles
Description: The β-lytic effect was searched on the chronotropic response to noradrenaline of isolated guinea pig auricles. Auricles were incubated for 20 minutes in a Tyrode solution at 29° C. in the presence of the substance to be tested at the concentration of 10^-6 M. A positive (+) or negative (-) chronotrope effect of the substance was noted using the following scores:
Then, the chronotrope effect of cumulative increasing concentrations of noradrenaline was recorded. The pD2 (-log CE50) value was calculated. A score of β-lytic activity of the substance was given as follows:
If the score at concentration of 10^-6 M was 3 or 4, the effect of the substance was examined at concentration of 10^-7 M and a score was recorded according to the same procedure.

[6] = 60 mg/kg oral, spontaneously hypertensive rats
[7] = 60 mg/kg oral, systolic pressure difference (cmHg) every 30 min multiplied by time coefficient 1 to 6

SMILES: CC(C)NCC(O)COc1ccc(-c2nc3c([N+](=O)[O-])cccc3[nH]2)cc1 (stereo not drawn) [Compound 17]
- Chronotrope effect (score) [1]: 0 (if the frequency modification was comprised between +6 and -6)
- Antihypertensive activity (score) [2, 6]: ++++ (reduction>50 mm Hg)
- Antihypertensive activity (index) [2, 7]: 89
- Antispasmodic activity, Hist. (-log CI50 (M)) [3]: 5.15 -log CI50 (M)
- Antispasmodic activity, Ac. Chol. (-log CI50 (M)) [4]: 5.60 -log CI50 (M)
- β-lytic effect (score) ([5]; 10^-6 M): 3 (if 6.00≥pD2 ≥5.51)
- β-lytic effect (score) ([5]; 10^-7 M): 2 (if 6.40≥pD2 ≥6.01)

SMILES: OC(CNC1CCCCC1)COc1ccc(-c2nc3ccccc3[nH]2)cc1 (stereo not drawn) [Compound 18]
- Chronotrope effect (score) [1]: 0 (if the frequency modification was comprised between +6 and -6)
- Antihypertensive activity (score) [2, 6]: +++ (reduction of 30 to 50 mm Hg)
- Antihypertensive activity (index) [2, 7]: 83
- Antispasmodic activity, Hist. (-log CI50 (M)) [3]: 5.45 -log CI50 (M)
- Antispasmodic activity, Ac. Chol. (-log CI50 (M)) [4]: 5.21 -log CI50 (M)
- β-lytic effect (score) ([5]; 10^-6 M): 1 (if 6.80≥pD2 ≥6.41)

SMILES: Cc1cc(-c2nc3ccccc3[nH]2)ccc1OCC(O)CNC(C)C (stereo not drawn) [Compound 20]
- Chronotrope effect (score) [1]: 0 (if the frequency modification was comprised between +6 and -6)
- Antihypertensive activity (score) [2, 6]: 0 (reduction <10 mm Hg)
- β-lytic effect (score) ([5]; 10^-6 M): 4 (if pD2 ≤5.50)
- β-lytic effect (score) ([5]; 10^-7 M): 1 (if 6.80≥pD2 ≥6.41)

SMILES: OC(CNCCOc1ccc(Cl)cc1)COc1ccc(-c2nc3ccccc3[nH]2)cc1 (stereo not drawn) [Compound 21]
- Antihypertensive activity (score) [2, 6]: 0 (reduction <10 mm Hg)

SMILES: CC(C)NCC(O)COc1ccc(-c2nc3cc([N+](=O)[O-])ccc3[nH]2)cc1 (stereo not drawn) [Compound 24, 2-[4-(3-isopropylamino-2-hydroxypropoxy)-phenyl]-5(6)nitrobenzimidazole]
- Chronotrope effect (score) [1]: 0 (if the frequency modification was comprised between +6 and -6)
- Antispasmodic activity, Hist. (-log CI50 (M)) [3]: 5,50 -log CI50 (M)
- Antispasmodic activity, Ac. Chol. (-log CI50 (M)) [4]: 5,45 -log CI50 (M)
- β-lytic effect (score) ([5]; 10^-6 M): 3 (if 6.00≥pD2 ≥5.51)
- β-lytic effect (score) ([5]; 10^-7 M): 2 (if 6.40≥pD2 ≥6.01)

SMILES: COc1cc(-c2nc3ccccc3[nH]2)ccc1OCC(O)CNC(C)C (stereo not drawn) [Compound 25, 2-[4-(3-isopropylamino-2-hydroxypropoxy)-3-methoxyphenyl]benzimidazole]
- Chronotrope effect (score) [1]: 0 (if the frequency modification was comprised between +6 and -6)
- β-lytic effect (score) ([5]; 10^-6 M): 3 (if 6.00≥pD2 ≥5.51)
- β-lytic effect (score) ([5]; 10^-7 M): 1 (if 6.80≥pD2 ≥6.41)

SMILES: CC(C)C(=O)NCCNCC(O)COc1ccc(-c2nc3ccccc3[nH]2)cc1 (stereo not drawn) [Compound 26, 2-{4-[3-(2-isobutyramidoethyl)amino-2-hydroxypropoxy]phenyl}benzimidazole]
- Chronotrope effect (score) [1]: 0 (if the frequency modification was comprised between +6 and -6)
- β-lytic effect (score) ([5]; 10^-6 M): 4 (if pD2 ≤5.50)
- β-lytic effect (score) ([5]; 10^-7 M): 3 (if 6.00≥pD2 ≥5.51)

SMILES: O=C(Cc1ccccc1)NCCNCC(O)COc1ccc(-c2nc3ccccc3[nH]2)cc1 (stereo not drawn) [Compound 27, 2-{4-[3-(2-phenylacetamidoethyl)amino-2-hydroxypropoxy]phenyl}benzimidazole]
- Chronotrope effect (score) [1]: 0 (if the frequency modification was comprised between +6 and -6)
- β-lytic effect (score) ([5]; 10^-6 M): 4 (if pD2 ≤5.50)
- β-lytic effect (score) ([5]; 10^-7 M): 3 (if 6.00≥pD2 ≥5.51)

SMILES: C[C@](N)(Cc1ccc(O)c(O)c1)C(=O)O [alpha-methyldopa, reference compound]
- Antihypertensive activity (index) ([2]; 100 mg/kg oral): 47
- Antihypertensive activity (score) ([2]; 100 mg/kg oral): +++ (reduction of 30 to 50 mm Hg)

SMILES: COC(=O)[C@H]1[C@H]2C[C@@H]3c4[nH]c5cc(OC)ccc5c4CCN3C[C@H]2C[C@@H](OC(=O)c2cc(OC)c(OC)c(OC)c2)[C@@H]1OC [reserpine, reference compound]
- Antihypertensive activity (index) ([2]; 3 mg/kg oral): 53
- Antihypertensive activity (score) ([2]; 3 mg/kg oral): +++ (reduction of 30 to 50 mm Hg)
